Laboratory results taken from patent publication US9149038B2, “4-amino-6-(heterocyclic)picolinates and 6-amino-2-(heterocyclic)pyrimidine-4-carboxylates and their use as herbicides” (Dow AgroSciences LLC, priority 2013, dated 2015).
Where two headings read alike, the source gives them in different places.

Columns and labels:
[1] = system: Key Grass and Sedge Weeds as well as Grass Crops; test: Post-Emergent Test II: postemergent herbicidal activity, visual rating after 14 d (Table 8); type: in vivo; details: post-emergence, 336 h; for pest or weed control at 35 g/ha: 35 g ai/ha; for pest or weed control at 70 g/ha: 70 g ai/ha; for pest or weed control at 140 g/ha: 140 g ai/ha
Outline: (§1)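 Visual 0-100% injury score (0 no injury, 100 complete kill) at 14 d post-spray, relative to untreated plants. Seedlings at 1st-2nd true leaf stage; track sprayer at 187 L/ha, highest rate plus ½×, ¼×, ⅛×, 1/16× serial dilutions. Subirrigated after treatment.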

[2] = system: Key Broadleaf Weed and Crop Species; test: Post-Emergent Test II: postemergent herbicidal activity, visual rating after 14 d (Table 7); type: in vivo; details: post-emergence, 336 h; for pest or weed control at 35 g/ha: 35 g ai/ha; for pest or weed control at 70 g/ha: 70 g ai/ha; for pest or weed control at 140 g/ha: 140 g ai/ha
Outline: as §1

[3] = barnyardgrass (Echinochloa crus-galli), read-out: Visual Growth Reduction (%) 14 Days After Application, ECHCG
[4] = giant foxtail (Setaria faberi), read-out: Visual Growth Reduction (%) 14 Days After Application, SETFA
[5] = maize, corn (Zea mays), read-out: Visual Growth Reduction (%) 14 Days After Application, ZEAMX
[6] = rice (Oryza sativa), read-out: Visual Growth Reduction (%) 14 Days After Application, ORYSA
[7] = wheat, spring (Triticum aestivum), read-out: Visual Growth Reduction (%) 14 Days After Application, TRZAS
[8] = yellow nutsedge (Cyperus esculentus), read-out: Visual Growth Reduction (%) 14 Days After Application, CYPES
[9] = ABUTH: velvetleaf (Abutilon theophrasti), read-out: Visual Growth Reduction (%) 14 Days After Application ABUTH
[10] = AMARE: redroot pigweed (Amaranthus retroflexus), read-out: Visual Growth Reduction (%) 14 Days After Application AMARE
[11] = BRSNN: oilseed rape, canola (Brassica napus), read-out: Visual Growth Reduction (%) 14 Days After Application BRSNN
[12] = CHEAL: lambsquarters (Chenopodium album), read-out: Visual Growth Reduction (%) 14 Days After Application CHEAL
[13] = EPHHL: wild poinsettia (Euphorbia heterophylla), read-out: Visual Growth Reduction (%) 14 Days After Application EPHHL
[14] = HELAN: sunflower (Helianthus annuus), read-out: Visual Growth Reduction (%) 14 Days After Application HELAN

COC(=O)c1nc(-c2ccc(Cl)c3c2OC(F)(F)O3)nc(N)c1OC [Compound 95]
pest or weed control at 35 g/ha [1, 3]: 0 to 29% | pest or weed control at 70 g/ha [1, 3]: 0 to 29% | pest or weed control at 140 g/ha [1, 3]: 0 to 29% | pest or weed control at 35 g/ha [1, 4]: 0 to 29% | pest or weed control at 70 g/ha [1, 4]: 0 to 29% | pest or weed control at 140 g/ha [1, 4]: 0 to 29% | pest or weed control at 35 g/ha [1, 5]: 0 to 29% | pest or weed control at 70 g/ha [1, 5]: 0 to 29% | pest or weed control at 140 g/ha [1, 5]: 0 to 29% | pest or weed control at 35 g/ha [1, 6]: 0 to 29% | pest or weed control at 70 g/ha [1, 6]: 0 to 29% | pest or weed control at 140 g/ha [1, 6]: 0 to 29% | pest or weed control at 35 g/ha [1, 7]: 0 to 29% | pest or weed control at 70 g/ha [1, 7]: 0 to 29% | pest or weed control at 140 g/ha [1, 7]: 0 to 29% | pest or weed control at 35 g/ha [1, 8]: 0 to 29% | pest or weed control at 70 g/ha [1, 8]: 45 to 59% | pest or weed control at 140 g/ha [1, 8]: 45 to 59% | pest or weed control at 35 g/ha [2, 9]: 45 to 59% | pest or weed control at 70 g/ha [2, 9]: 75 to 84% | pest or weed control at 140 g/ha [2, 9]: 75 to 84% | pest or weed control at 35 g/ha [2, 10]: 95 to 100% | pest or weed control at 70 g/ha [2, 10]: 95 to 100% | pest or weed control at 140 g/ha [2, 10]: 95 to 100% | pest or weed control at 35 g/ha [2, 11]: 45 to 59% | pest or weed control at 70 g/ha [2, 11]: 45 to 59% | pest or weed control at 140 g/ha [2, 11]: 60 to 74% | pest or weed control at 35 g/ha [2, 12]: 95 to 100% | pest or weed control at 70 g/ha [2, 12]: 95 to 100% | pest or weed control at 140 g/ha [2, 12]: 95 to 100% | pest or weed control at 35 g/ha [2, 13]: 0 to 29% | pest or weed control at 70 g/ha [2, 13]: 0 to 29% | pest or weed control at 140 g/ha [2, 13]: 0 to 29% | pest or weed control at 35 g/ha [2, 14]: 95 to 100% | pest or weed control at 70 g/ha [2, 14]: 95 to 100% | pest or weed control at 140 g/ha [2, 14]: 95 to 100%
